What was measured:
Format in all cases: in vivo, human
[1] = tested on: healthy, non-diabetic, obese subjects; experiment: Double-blind, placebo-controlled multi-center trial, 24 weeks of treatment (Example 1); details: for Fasting Glucose / Insulin (mcU/mL) / Triglyceride / Waist (cm) / Weight (%): obese subjects; for Weight (%): naltrexone 48 mg qd, bupropion 400 mg, or 32/400 mg combination; for Visceral fat (%): subset with DEXA and multislice CT scans
Experimental: A double-blind, placebo-controlled multi-center trial was conducted with 285 healthy, non-diabetic, obese subjects. The subjects were administered either bupropion 200 mg bid, placebo (P), naltrexone 48 mg qd (N1), or bupropion 400 mg with naltrexone 32 mg qd (BN2). 182 subjects completed 24 weeks of treatment. A subset of 60 subjects had dual energy X-ray absorptometry (DEXA) and multislice CT scans to measure body fat, lean tissue and visceral fat (American Diabetes Association Annual Meeting 2007).
The groups were matched at baseline.

[2] = tested on: Subjects; experiment: Metabolic parameters (Example 2, Table 5); details: Table 5, Metabolic Parameters
Experimental: (§1) Subjects (n=117) received one of six treatments: two placebos (P+P), placebo and naltrexone (P+Nal), bupropion and placebo (Bup+P), bupropion and naltrexone 48 mg (Bup+Nal 48), bupropion and naltrexone 32 mg (Bup+Nal 32), or bupropion and naltrexone 16 mg (Bup+Nal 16).
(§2) The average change in visceral body mass is shown in FIG. 1 for the four treatments. […] Statistically significant improvements were also observed in several important metabolic parameters including: plasma glucose, serum insulin and plasma triglycerides.

[3] = tested on: Subjects; experiment: DEXA body scan and multi-slice CT scan of body fat and visceral fat at baseline and 6 months (Example 2); parameters: LS Mean (SE)^, Visceral Adipose Mass / Change from Baseline Mean (SD), Visceral Adipose Mass / LS Mean (SE)^, Total Body Adipose Mass / Change from Baseline Mean (SD), Total Body Adipose Mass: unit not given here; details: for Change from Baseline Mean (SD), Total Body Adipose Mass: DEXA; for Change from Baseline Mean (SD), Total Body Adipose Mass / Change from Baseline Mean (SD), Visceral Adipose Mass: baseline to 6 months; for Change in Waist Circumference (cm): Table 2, titled Baseline Weight, BMI and Weight Circumference; for Change in Waist Circumference (%) vs. placebo: Table 2; for LS Mean (SE)^, Total Body Adipose Mass / LS Mean (SE)^, Visceral Adipose Mass: change from baseline; for Change from Baseline Mean (SD), Visceral Adipose Mass: multi-slice CT
Experimental: as §1
The mass of selective visceral loss can be calculated based on total fat and the volume of visceral fat.
as §2
The percentage of this decrease was similar in magnitude in both visceral and overall adipose tissue.

Structure (SMILES)	Fasting Glucose [1]	Insulin (mcU/mL) [1]	Triglyceride [1]	Waist (cm) [1]	Weight (%) [1]	Visceral fat (%) [1]	Plasma Glucose [2]	Serum Insulin (uU/mL) [2]	Triglycerides [2]	Change from Baseline Mean (SD), Total Body Adipose Mass [3]	Change in Waist Circumference (cm) [3]	Change in Waist Circumference (%) vs. placebo [3]	LS Mean (SE)^, Total Body Adipose Mass [3]	LS Mean (SE)^, Visceral Adipose Mass [3]	Change from Baseline Mean (SD), Visceral Adipose Mass [3]
CC(NC(C)(C)C)C(=O)c1cccc(Cl)c1 (stereo not drawn) [Bupropion, bupropion]	3.5 ± 1.5 mg/dL	−0.5 ± 1.1 mcU/mL	-18.4 ± 9.0 mg/dL	−2.9 ± 6.0 cm	−3.14 ± 0.7 %	−2.3 ± 5.1 %	3.5 ± 1.5 mg/dL	−0.5 ± 1.1 uU/mL	-18.4 ± 9.0 mg/dL	−4.1	1.9 cm	1.8%	−2.6	0.2	−2.3
O=C1CC[C@@]2(O)[C@H]3Cc4ccc(O)c5c4[C@@]2(CCN3CC2CC2)[C@H]1O5 [Naltrexone, naltrexone]	3.4 ± 1.7 mg/dL	1.7 ± 1.3 mcU/mL	-17.6 ± 10.4 mg/dL	−3.8 ± 12.7 cm	−1.74 ± 0.9 %	−0.1 ± 8.7 %	3.4 ± 1.7 mg/dL	1.7 ± 1.3 uU/mL	-17.6 ± 10.4 mg/dL	−3.2	−1.5 cm	−1.4%	−1.5	3.5	−0.1

Reference: patent US11324741B2, “Methods for treating visceral fat conditions” (Orexigen Therapeutics, Inc., priority 2008, dated 2022)
